This is an account of results in ChEMBL document CHEMBL1127219, “A convergent synthesis of 4-(2-benzothiazoyl)piperidines with antihistamic activity” (Bioorg Med Chem Lett, 1993).

One series is filed under the species Cavia porcellus. The series can be described thus: Concentration required to antagonize the histamine induced contractile response of guinea pig ileum. In kind it is functional. As to conditions: read-out: pA2 (converted).
The nature of series [1]: Dose causing 50% death of the population when tested in mice. In kind it is ADME. To be noted: mouse, in vivo.

As to `COc1ccc(CCN2CCC(C(=O)c3nc4ccccc4s3)CC2)cc1`, the Kb in the series filed under Cavia porcellus was 0.501 nM. Further, the median lethal dose (LD50) in series [1] was more than 400 mg/kg.
`COc1ccc(CCN2CCC(C(O)(c3ccccc3)c3nc4ccccc4s3)CC2)cc1` (centres undefined): in the series filed under Cavia porcellus, the Kb is 39.8 nM.
Regarding `COc1ccc(OCCCN2CCC(C(=O)c3nc4ccccc4s3)CC2)cc1`, in the series listed under Cavia porcellus, the Kb was 5.01 nM. The LD50 in series [1] is more than 400 mg/kg.
In the case of `COc1ccc(CCN2CCC(C(O)c3nc4ccccc4s3)CC2)cc1` (centres undefined), the Kb in the series listed under Cavia porcellus was 6.31 nM.
Regarding `C=C(c1nc2ccccc2s1)C1CCN(CCc2ccc(OC)cc2)CC1`, the Kb in the series filed under Cavia porcellus was 1.58 nM.
Turning to `O=C(c1nc2ccccc2s1)C1CCN(CCc2ccccc2)CC1`, the Kb in the series filed under Cavia porcellus was 15.8 nM. This compound displayed an LD50 in series [1] of more than 400 mg/kg.
For `COc1cccc(CN2CCC(C(=O)c3nc4ccccc4s3)CC2)c1` the same measures were 50.1 nM and 400 mg/kg.
In the case of `COC(=O)CN1CCC(C(=O)c2nc3ccccc3s2)CC1`, the Kb in the series filed under Cavia porcellus was approximately 100 nM. In series [1], this compound registered an LD50 of more than 400 mg/kg.
With `COC(=O)c1ccc(OCCCN2CCC(C(=O)c3nc4ccccc4s3)CC2)cc1`, in the series listed under Cavia porcellus, the Kb is 2.51 nM. This compound also had an LD50 in series [1] of more than 400 mg/kg.
As to `CC(=O)Nc1ccc(OCCCN2CCC(C(=O)c3nc4ccccc4s3)CC2)cc1`, the Kb in the series filed under Cavia porcellus is 7.94 nM. In series [1], the LD50 is more than 400 mg/kg.
For `O=C(c1nc2ccccc2s1)C1CCN(CCc2ccc(F)cc2)CC1` the same measures were 3.98 nM and more than 400 mg/kg.
